Molecular target: T1, MdtM (Escherichia coli, UniProt P39386)
T1 construct: full-length 410 residues, pBAD/Myc-His A vector (C-terminal Myc-His tag), overproduced in E. coli LMG194, purified in DDM detergent
Test: biochemical
Assay type: binding
Source text: intrinsic tryptophan fluorescence quenching on MdtM

T1 sequence (P39386 whole entry): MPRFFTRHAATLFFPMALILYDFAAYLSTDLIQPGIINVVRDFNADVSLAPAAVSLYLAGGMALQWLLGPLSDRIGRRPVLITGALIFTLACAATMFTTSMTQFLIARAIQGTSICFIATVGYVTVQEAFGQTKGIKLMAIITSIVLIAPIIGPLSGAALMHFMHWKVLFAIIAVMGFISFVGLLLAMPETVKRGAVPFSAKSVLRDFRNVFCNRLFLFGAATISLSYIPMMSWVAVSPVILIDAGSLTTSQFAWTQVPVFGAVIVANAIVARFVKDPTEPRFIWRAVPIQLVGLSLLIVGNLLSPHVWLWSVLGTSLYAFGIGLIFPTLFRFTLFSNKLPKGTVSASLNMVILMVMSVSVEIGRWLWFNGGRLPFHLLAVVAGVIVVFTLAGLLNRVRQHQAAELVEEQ

Row | Structure (SMILES) | Kd
1 | c1ccc([P+](c2ccccc2)(c2ccccc2)c2ccccc2)cc1 [TPP+] | 400 ± 145 nM
2 | O=C(N[C@H](CO)[C@H](O)c1ccc([N+](=O)[O-])cc1)C(Cl)Cl [chloramphenicol, 2,2-dichloro-N-[2-hydroxy-1-hydroxymethyl-2-(4-nitro-phenyl)-ethyl]-acetamide] | 22 ± 4 nM
